The test system of experiment [1] is PC-3. The experiment is described as follows: Inhibition of epithelial mesenchymal transition in human PC-3 cells assessed as downregulation of N-cadherin protein expression at 20 uM incubated for 48 hrs by Western blot analysis. The experiment is classed as functional, cell-based. In general terms: In western blotting, separated proteins are transferred to a membrane and probed.

In experiment [2] the test system is PC-3. Kind of experiment: Inhibition of epithelial mesenchymal transition in human PC-3 cells assessed as downregulation of Vimentin protein expression at 20 uM incubated for 48 hrs by Western blot analysis. The experiment is classed as functional, cell-based.
Experiment [3] has as its system DU-145. Kind of experiment: Inhibition of epithelial mesenchymal transition in human DU-145 cells assessed as downregulation of N-cadherin protein expression at 20 uM incubated for 48 hrs by Western blot analysis. The experiment is classed as functional, cell-based.
Experiment [4] relates to PC-3. Kind of experiment: Inhibition of cancer stem cell activity in human PC-3 cells assessed as decrease in Nanog protein expression at 20 uM incubated for 48 hrs by Western blot analysis. The experiment is classed as functional, cell-based.
For experiment [5], the system named is DU-145. The experiment is described as follows: Inhibition of cancer stem cell activity in human DU-145 cells assessed as decrease in KLF4 protein expression at 20 uM incubated for 48 hrs by Western blot analysis. The experiment is classed as functional, cell-based.
The target of experiment [6] is T1, Forkhead box protein C2 (Homo sapiens) (UniProt Q99958).
T1 sequence (whole entry): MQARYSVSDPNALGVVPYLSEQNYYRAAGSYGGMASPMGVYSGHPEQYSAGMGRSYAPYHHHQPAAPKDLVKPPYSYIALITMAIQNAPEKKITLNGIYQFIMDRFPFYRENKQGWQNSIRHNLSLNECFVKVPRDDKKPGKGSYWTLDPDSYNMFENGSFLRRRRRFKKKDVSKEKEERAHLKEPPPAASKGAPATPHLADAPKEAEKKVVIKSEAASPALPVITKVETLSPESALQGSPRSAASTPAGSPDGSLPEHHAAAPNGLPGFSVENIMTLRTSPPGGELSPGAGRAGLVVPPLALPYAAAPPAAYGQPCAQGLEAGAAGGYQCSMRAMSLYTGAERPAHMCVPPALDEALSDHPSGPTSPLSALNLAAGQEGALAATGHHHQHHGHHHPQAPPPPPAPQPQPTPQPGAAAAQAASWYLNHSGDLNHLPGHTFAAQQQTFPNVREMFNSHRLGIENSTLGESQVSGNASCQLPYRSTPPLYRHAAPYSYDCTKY
The experiment is described as follows: Induction of FOXC2 degradation in human PC-3 cells assessed as decrease in FOXC2 protein level at 20 uM incubated for 48 hrs by Western blot analysis. The experiment is classed as cell-based.

Experiment [7] concerns PC-3. Kind of experiment: Inhibition of cancer stem cell activity in human PC-3 cells assessed as decrease in C-myc protein expression at 20 uM incubated for 48 hrs by Western blot analysis. The experiment is classed as functional, cell-based.
The test system of experiment [8] is DU-145. Kind of experiment: Synergistic antiproliferative activity against human DU-145 cells assessed as combination index incubated for 24 hrs in the presence of enzalutamide by MTT assay. The experiment is classed as functional. (Tetrazolium dyes change colour on reduction, which living cells bring about.)
The subject of experiment [9] is DU-145. The experiment is described as follows: Inhibition of epithelial mesenchymal transition in human DU-145 cells assessed as downregulation of Slug protein expression at 20 uM incubated for 48 hrs by Western blot analysis. The experiment is classed as functional, cell-based.
Experiment [10] deals with PC-3. Kind of experiment: Inhibition of epithelial mesenchymal transition in human PC-3 cells assessed as upregulation of ZO-1 protein expression at 20 uM incubated for 48 hrs by Western blot analysis. The experiment is classed as functional, cell-based.
Experiment [11] relates to PC-3. Kind of experiment: Inhibition of epithelial mesenchymal transition in human PC-3 cells assessed as downregulation of ZEBI protein expression at 20 uM incubated for 48 hrs by Western blot analysis. The experiment is classed as functional, cell-based.
The subject of experiment [12] is PC-3. The experiment is described as follows: Synergistic antiproliferative activity against human PC-3 cells assessed as reduction in cell viability incubated for 24 hrs in the presence of docetaxel by MTT assay. The experiment is classed as functional, cell-based.
The test system of experiment [13] is PC-3. The experiment is described as follows: Inhibition of epithelial mesenchymal transition in human PC-3 cells assessed as upregulation of E-cadherin protein expression at 20 uM incubated for 48 hrs by Western blot analysis. The experiment is classed as functional, cell-based.
Experiment [14] relates to DU-145. The experiment is described as follows: Antiproliferative activity against human DU-145 cells assessed as reduction in cell viability by MTT assay. The experiment is classed as functional, cell-based.
For experiment [15], the system named is DU-145. Kind of experiment: Inhibition of epithelial mesenchymal transition in human DU-145 cells assessed as downregulation of ZEBI protein expression at 20 uM incubated for 48 hrs by Western blot analysis. The experiment is classed as functional, cell-based.
The test system of experiment [16] is PC-3. The experiment is described as follows: Inhibition of cancer stem cell activity in human PC-3 cells assessed as decrease in KLF4 protein expression at 20 uM incubated for 48 hrs by Western blot analysis. The experiment is classed as functional, cell-based.
Experiment [17] concerns DU-145. Kind of experiment: Inhibition of cancer stem cell activity in human DU-145 cells assessed as decrease in Nanog protein expression at 20 uM incubated for 48 hrs by Western blot analysis. The experiment is classed as functional, cell-based.
Experiment [18] deals with DU-145. Kind of experiment: Inhibition of epithelial mesenchymal transition in human DU-145 cells assessed as downregulation of Vimentin protein expression at 20 uM incubated for 48 hrs by Western blot analysis. The experiment is classed as functional, cell-based.
Experiment [19] relates to PC-3. Kind of experiment: Antimetastatic activity in human PC-3 cells assessed as inhibition of cell invasion at 20 uM incubated for 24 hrs by transwell invasion assay. The experiment is classed as functional, cell-based.
In experiment [20] the test system is LNCaP. The experiment is described as follows: Synergistic antiproliferative activity against human LNCaP cells assessed as inhibition of cell growth in presence of docetaxel by MTT assay. The experiment is classed as functional, cell-based.
Experiment [21] has as its system DU-145. The experiment is described as follows: Inhibition of epithelial mesenchymal transition in human DU-145 cells assessed as upregulation of ZO-1 protein expression at 20 uM incubated for 48 hrs by Western blot analysis. The experiment is classed as functional, cell-based.
Experiment [22] relates to DU-145. The experiment is described as follows: Inhibition of cancer stem cell activity in human DU-145 cells assessed as decrease in C-myc protein expression at 20 uM incubated for 48 hrs by Western blot analysis. The experiment is classed as functional, cell-based.
Experiment [23] concerns DU-145. Kind of experiment: Inhibition of epithelial mesenchymal transition in human DU-145 cells assessed as upregulation of E-cadherin protein expression at 20 uM incubated for 48 hrs by Western blot analysis. The experiment is classed as functional, cell-based.
For experiment [24], the system named is DU-145. Kind of experiment: Effect on FOXC2 gene expression level in human DU-145 cells. The experiment is classed as functional, cell-based.
Experiment [25] deals with DU-145. The experiment is described as follows: Antimetastatic activity in human DU-145 cells assessed as inhibition of cell invasion at 20 uM incubated for 24 hrs by transwell invasion assay. The experiment is classed as functional, cell-based.
The subject of experiment [26] is PC-3. The experiment is described as follows: Synergistic antiproliferative activity against human PC-3 cells assessed as combination index incubated for 24 hrs in the presence of enzalutamide by MTT assay. The experiment is classed as functional.
Experiment [27] has as its system PC-3. Kind of experiment: Effect on FOXC2 gene expression level in human PC-3 cells. The experiment is classed as functional, cell-based.
For experiment [28], the system named is DU-145. Kind of experiment: Synergistic antiproliferative activity against human DU-145 cells assessed as reduction in cell viability incubated for 24 hrs in the presence of docetaxel by MTT assay. The experiment is classed as functional, cell-based.
Experiment [29] has as its system PC-3. The experiment is described as follows: Antiproliferative activity against human PC-3 cells assessed as reduction in cell viability by MTT assay. The experiment is classed as functional, cell-based.
The test system of experiment [30] is LNCaP. The experiment is described as follows: Antimetastatic activity in human LNCaP cells assessed as inhibition of cell invasion by measuring change in number of invading cells by transwell invasion assay. The experiment is classed as functional, cell-based.
Experiment [31] concerns PC-3. Kind of experiment: Inhibition of epithelial mesenchymal transition in human PC-3 cells assessed as downregulation of Slug protein expression at 20 uM incubated for 48 hrs by Western blot analysis. The experiment is classed as functional, cell-based.
The target of experiment [32] is T1, Forkhead box protein C2 (Homo sapiens). Kind of experiment: Induction of FOXC2 degradation in human DU-145 cells assessed as decrease in FOXC2 protein level at 20 uM incubated for 48 hrs by Western blot analysis. The experiment is classed as cell-based.

For orientation: EC50 means the midpoint of the concentration-response curve.

Each structure is given as a SMILES string. Activity calls are given as the source filed them. No cut-off for these calls is given here.

As to `N=C(N)NCCCCNc1nc(Nc2ccc(Oc3ccccc3)cc2)nc(N2CCN(c3nc(N)nc(Nc4ccc(N5CCOCC5)cc4)n3)CC2)n1`, the inhibition result in experiment [1], in experiment [2], in experiment [3], in experiment [4], in [5] and in experiment [7] was “Active” throughout. Besides, the inhibition entry in experiment [9], in experiment [10], in experiment [11], in experiment [13], in [15] and in experiment [16] was “Active” each time. For the same compound, the inhibition result in experiment [17], in experiment [18], in experiment [21], in experiment [22], in experiment [23] and in [31] was “Active” in each case. Also, the outcome in experiment [6], in experiment [12], in experiment [19], in experiment [25], in [28] and in [32] was Active. For the same compound, the CI in [8] and in experiment [26] was above 1 in each case. In addition, the half-maximal effective concentration (EC50) stood at 48.1 µM in [14] and 53.2 µM in experiment [29]. Also, the result in [20], in experiment [24], in experiment [27] and in experiment [30] was inactive.

For the compound `CC(=O)O[C@@]12CO[C@@H]1C[C@H](O)[C@@]1(C)C(=O)[C@H](O)C3=C(C)[C@@H](OC(=O)[C@H](O)[C@@H](NC(=O)OC(C)(C)C)c4ccccc4)C[C@@](O)([C@@H](OC(=O)c4ccccc4)[C@H]21)C3(C)C` [DOCETAXEL ANHYDROUS], the concentration for a half-maximal effect (EC50) in experiment [14] was 0.00605 µM; in experiment [29], 0.0076 µM.

Consider `CNC(=O)c1ccc(N2C(=S)N(c3ccc(C#N)c(C(F)(F)F)c3)C(=O)C2(C)C)cc1F`, for which the result in experiment [14] and in experiment [29] was inactive.

These data come from ChEMBL document CHEMBL5321252, “A FOXC2 inhibitor, MC-1-F2, as a therapeutic candidate for targeting EMT in castration-resistant prostate cancer” (Bioorg Med Chem Lett, 2023).
